Measurements as given in patent US10597388B2, “Pyridazinone herbicides” (FMC CORPORATION, priority 2014, dated 2020).

Tests used:
Assay type in all cases: in vivo
[1] = test system: Italian ryegrass (Lolium multiflorum); assay: Test E greenhouse herbicide test, pre- and postemergence
Description: (§1) Seeds of plant species selected from corn (Zea mays), soybean (Glycine max), velvetleaf (Abutilon theophrasti), lambsquarters (Chenopodium album), wild poinsettia (Euphorbia heterophylla), pigweed, palmer (palmer pigweed, Amaranthus palmeri), waterhemp (common waterhemp, Amaranthus rudis), surinam grass (Brachiaria decumbens), crabgrass, large (large crabgrass, Digitaria sanguinalis), crabgrass, Brazilian (Brazilian crabgrass, Digitaria horizontalis), panicum, fall (fall panicum, Panicum dichotomiflorum), foxtail, giant (giant foxtail, Setaria faberii), foxtail, green (green foxtail, Setaria viridis), goosegrass (Eleusine indica), johnsongrass (Sorghum halepense), ragweed (common ragweed, Ambrosia elatior), barnyardgrass (Echinochloa crus-galli), sandbur (southem sandbur, Cenchrus echinatus), arrowleaf sida (Sida rhombifolia), Italian ryegrass (Lolium multiflorum), dayflower (Virginia (VA) dayflower, Commelina virginica), field bindweed (Convolvulus arvensis), momingglory (Ipomoea coccinea), nightshade (eastern black nightshade, Solanum ptycanthum), kochia (Kochia scoparia), nutsedge, yellow (yellow nutsedge, Cyperus esculentus), horseweed (Conyza canadensis), and beggarticks (hairy beggarticks, Bidens pilosa), were planted into a silt loam soil and treated preemergence with test chemicals formulated in a non-phytotoxic solvent mixture which included a surfactant.
(§2) At the same time, plants from these crop and weed species and also waterhemp_RES1, (ALS & Triazine resistant common waterhemp, Amaranthus rudis), and waterhemp_RES2, (ALS & HPPD resistant common waterhemp, Amaranthus rudis) were planted in pots containing Redi-Earth® planting medium (Scotts Company, 14111 Scottslawn Road, Marysville, Ohio 43041) comprising spaghnum peat moss, vermiculite, wetting agent and starter nutrients were treated with postemergence applications of test chemicals formulated in the same manner. Plants ranged in height from 2 to 18 cm for postemergence treatments (1- to 4-leaf stage). Treated plants and controls were maintained in a greenhouse for 14 to 21 d, after which time all species were compared to controls and visually evaluated. Plant response ratings, summarized in Table E, are based on a scale of 0 to 100 where 0 is no effect and 100 is complete control. A dash (-) response means no test result.

[2] = test system: arrowleaf sida (Sida rhombifolia); assay: as above
Description: as §1, §2

[3] = test system: crabgrass, large (large crabgrass, Digitaria sanguinalis); assay: as above; conditions: Preemergence
Description: as §1, §2

[4] = test system: dayflower (Virginia (VA) dayflower, Commelina virginica); assay: as above
Description: as §1, §2

[5] = test system: foxtail, giant (giant foxtail, Setaria faberii); assay: as above; conditions: Preemergence
Description: as §1, §2

[6] = test system: foxtail, green (green foxtail, Setaria viridis); assay: as above; conditions: Preemergence
Description: as §1, §2

[7] = test system: horseweed (Conyza canadensis); assay: as above; conditions: Postemergence
Description: as §1, §2

[8] = test system: johnsongrass (Sorghum halepense); assay: as above; conditions: Preemergence
Description: as §1, §2

[9] = test system: kochia (Kochia scoparia); assay: as above
Description: as §1, §2

[10] = test system: momingglory (Ipomoea coccinea); assay: as above; conditions: Preemergence
Description: as §1, §2

[11] = test system: nightshade (eastern black nightshade, Solanum ptycanthum); assay: as above; conditions: Preemergence
Description: as §1, §2

[12] = test system: pigweed, palmer (palmer pigweed, Amaranthus palmeri); assay: as above
Description: as §1, §2

[13] = test system: soybean (Glycine max); assay: as above
Description: as §1, §2

[14] = test system: velvetleaf (Abutilon theophrasti); assay: as above; conditions: Preemergence
Description: as §1, §2

[15] = test system: waterhemp_RES1 (ALS & Triazine resistant common waterhemp, Amaranthus rudis); assay: Test E greenhouse herbicide test, postemergence
Procedure, shortened: (§3)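 Formulated compounds are applied postemergence to potted waterhemp at 1–4 leaves (2–18 cm high). Plants stay in the greenhouse for 14 to 21 d before visual comparison with controls, and control is scored from 0 (none) to 100 (complete).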

[16] = test system: waterhemp_RES2 (ALS & HPPD resistant common waterhemp, Amaranthus rudis); assay: Test E greenhouse herbicide test, postemergence
Procedure, shortened: as §3

[17] = 62 g ai/ha, Postemergence, scale 0 to 100 (0 no effect, 100 complete control)
[18] = 62 g ai/ha, Preemergence, scale 0 to 100 (0 no effect, 100 complete control)
[19] = 125 g ai/ha, Postemergence, scale 0 to 100 (0 no effect, 100 complete control)
[20] = 125 g ai/ha, Preemergence, scale 0 to 100 (0 no effect, 100 complete control)
[21] = 250 g ai/ha, Postemergence, scale 0 to 100 (0 no effect, 100 complete control)
[22] = Postemergence, 31 g ai/ha, visual, scale 0 no effect to 100 complete control
[23] = Preemergence, 31 g ai/ha, scale 0 to 100, 0 no effect, 100 complete control
[24] = Preemergence, 250 g ai/ha, visual, scale 0 no effect to 100 complete control
[25] = Preemergence, 125 g ai/ha, visual, scale 0 no effect to 100 complete control
[26] = 62 g ai/ha, scale 0 to 100 (0 no effect, 100 complete control)
[27] = 31 g ai/ha, scale 0 to 100, 0 no effect, 100 complete control
[28] = 125 g ai/ha, visual, scale 0 no effect to 100 complete control
[29] = 250 g ai/ha, visual, scale 0 no effect to 100 complete control
[30] = 125 g ai/ha, scale 0 to 100 (0 no effect, 100 complete control)
[31] = 250 g ai/ha, scale 0 to 100 (0 no effect, 100 complete control)
[32] = 31 g ai/ha, visual, scale 0 no effect to 100 complete control

Cc1cc2ccccc2c(-c2c(O)c(C)nn(C)c2=O)c1C [Compound 34]
Plant response rating, Ryegrass, Italian [1, 17]: 80 | Plant response rating, Ryegrass, Italian [1, 18]: 100 | Plant response rating, Ryegrass, Italian [1, 19]: 85 | Plant response rating, Ryegrass, Italian [1, 20]: 100 | Plant response rating, Ryegrass, Italian [1, 21]: 90 | Plant response rating, Ryegrass, Italian [1, 22]: 65 | Plant response rating, Ryegrass, Italian [1, 23]: 90 | Plant response rating, Ryegrass, Italian [1, 24]: 100 | Plant response rating, Arrowleaf Sida [2, 17]: 60 | Plant response rating, Arrowleaf Sida [2, 18]: 20 | Plant response rating, Arrowleaf Sida [2, 19]: 70 | Plant response rating, Arrowleaf Sida [2, 21]: 75 | Plant response rating, Arrowleaf Sida [2, 22]: 65 | Plant response rating, Arrowleaf Sida [2, 23]: 0 | Plant response rating, Arrowleaf Sida [2, 25]: 65 | Plant response rating, Arrowleaf Sida [2, 24]: 80 | Plant response rating, Crabgrass, Large [3, 26]: 0 | Plant response rating, Crabgrass, Large [3, 27]: 0 | Plant response rating, Crabgrass, Large [3, 28]: 50 | Plant response rating, Crabgrass, Large [3, 29]: 20 | Plant response rating, Dayflower, VA [4, 17]: 80 | Plant response rating, Dayflower, VA [4, 18]: 35 | Plant response rating, Dayflower, VA [4, 19]: 90 | Plant response rating, Dayflower, VA [4, 21]: 90 | Plant response rating, Dayflower, VA [4, 22]: 60 | Plant response rating, Dayflower, VA [4, 23]: 35 | Plant response rating, Dayflower, VA [4, 25]: 70 | Plant response rating, Dayflower, VA [4, 24]: 90 | Plant response rating, Foxtail, Giant [5, 26]: 40 | Plant response rating, Foxtail, Giant [5, 27]: 5 | Plant response rating, Foxtail, Giant [5, 28]: 40 | Plant response rating, Foxtail, Giant [5, 29]: 65 | Plant response rating, Foxtail, Green [6, 26]: 0 | Plant response rating, Foxtail, Green [6, 27]: 0 | Plant response rating, Foxtail, Green [6, 28]: 25 | Plant response rating, Foxtail, Green [6, 29]: 65 | Plant response rating, Horseweed [7, 26]: 75 | Plant response rating, Horseweed [7, 30]: 80 | Plant response rating, Horseweed [7, 31]: 90 | Plant response rating, Horseweed [7, 32]: 85 | Plant response rating, Johnsongrass [8, 26]: 0 | Plant response rating, Johnsongrass [8, 27]: 0 | Plant response rating, Johnsongrass [8, 28]: 0 | Plant response rating, Johnsongrass [8, 29]: 0 | Plant response rating, Kochia [9, 17]: 98 | Plant response rating, Kochia [9, 18]: 5 | Plant response rating, Kochia [9, 19]: 85 | Plant response rating, Kochia [9, 21]: 85 | Plant response rating, Kochia [9, 22]: 70 | Plant response rating, Kochia [9, 23]: 0 | Plant response rating, Kochia [9, 25]: 5 | Plant response rating, Kochia [9, 24]: 85 | Plant response rating, Morningglory [10, 26]: 25 | Plant response rating, Morningglory [10, 30]: 35 | Plant response rating, Morningglory [10, 27]: 0 | Plant response rating, Morningglory [10, 29]: 90 | Plant response rating, Nightshade [11, 26]: 25 | Plant response rating, Nightshade [11, 30]: 98 | Plant response rating, Nightshade [11, 27]: 0 | Plant response rating, Nightshade [11, 29]: 95 | Plant response rating, Pigweed, Palmer [12, 17]: 80 | Plant response rating, Pigweed, Palmer [12, 18]: 0 | Plant response rating, Pigweed, Palmer [12, 19]: 65 | Plant response rating, Pigweed, Palmer [12, 20]: 90 | Plant response rating, Pigweed, Palmer [12, 21]: 75 | Plant response rating, Pigweed, Palmer [12, 22]: 50 | Plant response rating, Pigweed, Palmer [12, 23]: 0 | Plant response rating, Pigweed, Palmer [12, 24]: 90 | Plant response rating, Soybean [13, 17]: 40 | Plant response rating, Soybean [13, 18]: 35 | Plant response rating, Soybean [13, 19]: 70 | Plant response rating, Soybean [13, 20]: 15 | Plant response rating, Soybean [13, 21]: 60 | Plant response rating, Soybean [13, 22]: 35 | Plant response rating, Soybean [13, 23]: 0 | Plant response rating, Soybean [13, 24]: 0 | Plant response rating, Velvetleaf [14, 26]: 90 | Plant response rating, Velvetleaf [14, 30]: 100 | Plant response rating, Velvetleaf [14, 27]: 20 | Plant response rating, Velvetleaf [14, 29]: 100 | Plant response rating, Waterhemp_RES1 [15, 32]: 90 | Plant response rating, Waterhemp_RES1 [15, 26]: 90 | Plant response rating, Waterhemp_RES1 [15, 30]: 90 | Plant response rating, Waterhemp_RES1 [15, 31]: 95 | Plant response rating, Waterhemp_RES2 [16, 32]: 40 | Plant response rating, Waterhemp_RES2 [16, 26]: 80 | Plant response rating, Waterhemp_RES2 [16, 31]: 70
